Test results published in patent publication US8865659B2, “Compositions for prevention or treatment of Hepatitis C virus containing ginsenoside Rg3 as an active ingredient” (priority 2012, dated 2014).

Tests used:
HCV CORE = test: Western blotting against HCV CORE in JFH-1 infected Huh 7.5.1 cells; type: cell-based, Hepatitis C virus (JFH-1)
Procedure: The experiment was carried out as follow. First, 200,000 Huh 7.5.1 cells were placed in a 60×15 mm cell culture dish. Next day, Japanese Fulminant Hepatitis-1 virus (JFH-1) stock vial which was stored in −70° C. refrigerator was taken out and thawed out in a container filled with ice-water. The culture medium was collected from the cultured 60×15 mm cell culture dish, washed with 1×PBS and collected, again. 1.5 ml of JFH-1 virus solution per 60×15 mm cell culture dish each was added. The dish was shaken to cover the surface sufficiently. The dish was laid in a 5% CO2 incubator at 37° C. for 6 hours and after that, the supernatant was draw out. 1×PBS was spread on the cell surface as slow as possible and after one time washing, cells were collected. 5 ml of cell culture media was added to control and JFH-1 treatments groups. At the last step of virus-infection, 5 ml CM and each […] of ginsenosides which was set to 50 mM concentration were added to the cell culture media. After that, the cell culture media was laid in a 5% CO2 incubator at 37° C. After 72 hours, the following steps were carried out.
As described in the above Example 3, the Huh 7.5.1 cells were treated with each 100 μM of seven ginsenosides (Ro, Re, Rg1, Rg2, Rg3, Rh1, Rh2). After 72 hours, a western blotting analysis was carried out for analyzing virus suppression effect against HCV CORE and cleaved PARP.
Specific western blotting analysis carried out was as follow. First, the above described samples were prepared, mixed with a sample buffer in tubes and heated at 100° C. for 10 minutes. The tubes were cooled on ice and centrifuged. The electrophoresis was carried out with the above samples and molecular weight markers, and then they were transferred to a PVDF membrane (hydrophobic). After blocking with 5% skin milk for an hour, each primary antibody was added. After staying overnight at 4° C., washings three times for every 10 minutes were conducted, and the blocking was carried out with 5% skin milk for an hour at the room temperature. After that, each secondary antibody was added, and the reaction for an hour and washing three times for every 10 minutes were conducted. Then, the membrane was stained by 1:1 mix with detection reagents A (Luminol Enhancer solution) and B (Peroxide solution) and developed with X ray film.
To examine the dose-dependent anti-virus effect of ginsenoside Rg3, western blotting analysis against cleaved PARP and HCV CORE were carried out with the samples of ginsenosides Rg3 treatment concentration at 10 μM, 25 μM, 50 μM and 100 μM each.
To examine the dose-dependent anti-virus effect of ginsenoside Rh2, western blotting analysis against cleaved PARP and HCV CORE were carried out with the samples of ginsenosides Rh2 treatment concentration at 10 μM, 25 μM and 50 μM each. […]

HCV NS3/4A protease = target: T1, HCV NS3/4A protease (Hepatitis C virus genotype 2a, UniProt Q99IB8); test: HCV NS3/4A protease activity (HCV Protease Assay kit, ANASPEC); type: biochemical
T1 construct: Diluted HCV NS3 protease to an appropriate concentration in assay buffer; expressed in transfected cells; host or cells: HCV replicon-containing Huh7 cells (membrane fractions)
T1 sequence (Q99IB8 1031-1661): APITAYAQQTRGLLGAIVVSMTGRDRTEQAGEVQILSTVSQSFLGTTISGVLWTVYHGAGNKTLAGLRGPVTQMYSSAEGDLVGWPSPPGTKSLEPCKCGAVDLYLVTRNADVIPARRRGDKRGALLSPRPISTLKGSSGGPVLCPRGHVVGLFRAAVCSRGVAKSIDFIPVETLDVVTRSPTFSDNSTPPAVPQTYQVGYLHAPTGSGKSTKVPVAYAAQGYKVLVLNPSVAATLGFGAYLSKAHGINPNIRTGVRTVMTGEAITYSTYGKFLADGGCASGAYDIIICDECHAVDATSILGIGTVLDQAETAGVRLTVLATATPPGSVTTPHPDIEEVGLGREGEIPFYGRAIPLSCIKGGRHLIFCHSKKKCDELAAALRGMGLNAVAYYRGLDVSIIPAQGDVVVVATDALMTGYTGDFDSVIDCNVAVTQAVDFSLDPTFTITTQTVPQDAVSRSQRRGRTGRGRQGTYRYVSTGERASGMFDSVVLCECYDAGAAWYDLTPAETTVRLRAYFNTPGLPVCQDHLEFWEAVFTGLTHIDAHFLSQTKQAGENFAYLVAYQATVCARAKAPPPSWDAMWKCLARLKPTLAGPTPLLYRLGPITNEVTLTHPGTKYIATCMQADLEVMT
T1 sequence (Q99IB8 1662-1715): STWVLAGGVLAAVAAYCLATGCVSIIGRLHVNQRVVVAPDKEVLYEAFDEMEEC
Procedure: HCV Protease Assay kit (ANASPEC) was used to the following experiments. The components, description and quantity were as follows:
Diluted HCV protease substrate (Component A) 1:50 in assay buffer.
Diluted HCV NS3 protease to an appropriate concentration in assay buffer.
b) Mixed an equal volume of the HCV NS3 protease diluent and Pep4AK diluent. Incubated the mixture at 23-25° C. for 15 min.
The HCV replicon-containing cells (e.g. 1×10^7-10^8 Huh7 cells) grew to 90% confluence. The cells were washed with 1× phosphate-buffered saline once, and then the cells were detached by scraping. The cell pellets were harvested by centrifuging at 900×g for 10 min at 4° C. The cell pellets were resuspended with 1 mL of hypotonic buffer (10 mM Tris-HCl, pH 7.8, 10 mM NaCl), and then the cell pellets were incubated on ice for 15-20 min. The cell pellets were disrupted with 50 strokes of a tight fitting pestle in a Dounce homogenizer. The homogenate was centrifuged at 900×g for 5 min at 4° C. to remove the nuclei, which was in the pellet. […]
For kinetics reading: Immediately started measuring fluorescence intensity at Ex/Em=490 nm/520 nm continuously and recorded data every 5 min for 30 to 60 min.
For end-point reading: Incubated the reaction at room temperature for 30 to 60 minutes. […] Then measured fluorescence intensity at Ex/Em=490 nm/520 nm.

`CC(C)=CCC[C@](C)(O)[C@H]1CC[C@]2(C)[C@@H]1[C@H](O)C[C@@H]1[C@@]3(C)CC[C@H](O[C@@H]4O[C@H](CO)[C@@H](O)[C@H](O)[C@H]4O[C@@H]4O[C@H](CO)[C@@H](O)[C@H](O)[C@H]4O)C(C)(C)[C@@H]3CC[C@]12C` [ginsenoside Rg3] was tested, and the “virus suppression effect (HCV CORE), dose dependence” value (HCV CORE; 10 μM, 25 μM, 50 μM and 100 μM) was “dose-dependent manner”, the “HCV CORE” value (HCV CORE; 100 μM, 72 hours) was “remarkably decreased” and the “anti-virus effect compared with interferon” value (HCV CORE; comparison with PegIFN alpha-2b) was “same anti-virus effect as the interferon therapeutics”. The NS3/4 protease activity (HCV NS3/4A protease) was “inhibited” and the “NS3/4 protease activity, dose dependence” value (HCV NS3/4A protease) was “dose-dependent manner”.
